Laboratory results from patent publication US20140315975A1, “APOPTOSIS-INDUCING AGENT” (NITTO DENKO CORPORATION, priority 2011, published 2014).

Tested on: K-RAS mutation-positive colon carcinoma cell line M7609
Assay: Total cell count after siRNA transfection (hemocytometer)
Assay type: cell-based
Details: after culturing for 4 days, versus no suppression (FIG. 1b)
Experimental: K-RAS mutation-positive colon carcinoma cell line M7609 was cultured in 10% fetal bovine serum (FBS)-containing RPMI-1640 medium at 37° C. under an atmosphere containing 5% CO2. Furthermore, 100 U/mL penicillin and 100 μg/mL streptomycin were added as antibiotics to the medium.
On the day before transfection, M7609 cells were plated on a 100 mm plastic tissue culture dish using 10% FBS-containing RPMI-1640 medium containing no antibiotic so as to give 1×10^6 cells/10 mL. 600 pmol of GST-π siRNA (SEQ ID No: 1: […], siRNA ID#2385, Ambion) was added to 1 mL of Opti-MEM I Reduced Serum Medium (GIBCO) and mixed gently. […] On the 1st, 2nd, 3rd, and 4th days after transfection with GST-π siRNA, the number of cells was counted, and knockdown of GST-π was examined. Knockdown of GST-π was analyzed by a western blot method as described below.
Western blot analysis of GST-π knockdown was carried out using cells harvested at above-mentioned each point of time after transfection with GST-π siRNA. […] The cell extract thus obtained was subjected to quantitative protein analysis using a Micro BCA Protein Assay Kit (Thermo SCIENTIFIC) (GST-π siRNA transfectant: 4.35 μg/μL, Scramble siRNA transfectant: 4.56 μg/μL). […] A reaction with a chemiluminescent substrate was then carried out at room temperature for 1 min., and then this chemiluminescence was detected using an X-ray film. […]

With “GST-π siRNA: GST-π siRNA (SEQ ID No: 1: GGGAGGCAAGACCUUCAUUTT, siRNA ID#2385, Ambion) (chemistry not given here)” the number of cells was “markedly less”.
